Assays:
[1] = test system: HL-60 human leukemia cell; test: Preliminary anti-tumor screening in vitro, MTT method; assay type: cell-based; parameters: key to Test results: +++: inhibition rates at three doses are greater than 50%; ++: inhibition rates at two doses are greater than 50%; +: inhibition rate at one dose is greater than 50%; conditions: HL-60, MTT; for Test results: number of doses with inhibition > 50%; for inhibition at 0.05 µM / inhibition at 0.5 µM / inhibition at 5 µM: Homo sapiens, read-out: Inhibition rate %
Description: (§1) The test methods used in this test example is the routine method for anti-tumor activities test in pharmaceutical area, for example, referring to the following reference: (J. Immunol Method, 1983, 65, 55).
(§2) Test models: A: MTT method (HL-60 human leukemia); B: SRB method (BGC-823 human gastric cancer); C: SRB method (Bel-7402 human hepatocarcinoma); D: SRB method (KB human nasopharyngeal carcinoma).
(§3) The aforesaid tests were carried out with the compounds of Examples 1-26 in the present invention, test results are shown in Tables 2-5.

[2] = target: T1, 20S proteasome extracted from rat liver, peptidyl-glutamyl-peptide-hydrolyzing (PGPH) enzyme activity (Rattus norvegicus, UniProt P28073+Q9JHW0); test: Proteasome inhibition, PGPH activity, fluorescent peptide Z-leu-leu-Glu-βNA; assay type: biochemical; conditions: rat liver 20S proteasome, 37° C., 1 h
T1 construct: 20S proteasome extracted from rat liver; from tissue; host or cells: rat liver
Description: (§4) The activities of the proteasome were assayed using fluorescent peptides: Suc-leu-leu-Val-Tyr-AMC (Suc represents succinyl, and AMC represents 7-amino-4-methylcoumarin, purchased from SIGMA) for determining chymotryptic-like (CT-L) activity; Z-Ala-Arg-Arg-AMC (Z represents benzyloxycarbonyl, purchased from Calbiochem) for determining trypsin-like (TL) activity; and Z-leu-leu-Glu-βNA (βNA represents β-naphtylamide, purchased from SIGMA) for determining peptidyl-glutamyl-peptide-hydrolyzing (PGPH) enzyme activity.
(§5) Method for the aforesaid activity assays is as follows: 1 μg of 20S proteasome extracted from rat liver was incubated with a 100 μL solution containing various concentrations of compounds, 50 μM fluorescent peptides and 20 mM Tris-HCl at 37° C. for 1 h, respectively. The fluorescence released from AMC and RNA reagents was measured by a spectrofluorimeter Fluostar OPTIMA and BMG Germany at excitation/emission wavelengths of 380/440 nm and 335/410 nm, respectively. 0.1% DMSO was used as a solvent control. Compared with the fluorescence of solvent control, an inhibition rate was calculated. Said assays used anticancer drug bortezomib (leukemia drug), namely PS341 as compound for positive control.

[3] = test system: Bel-7402 human hepatocarcinoma cell; test: Preliminary anti-tumor screening in vitro, SRB method; assay type: cell-based; parameters: key to Test results: +++: inhibition rates at three doses are greater than 50%; ++: inhibition rates at two doses are greater than 50%; +: inhibition rate at one dose is greater than 50%; conditions: Bel-7402, SRB; for Test results: number of doses with inhibition > 50%; for inhibition at 0.05 µM / inhibition at 0.5 µM / inhibition at 5 µM: Homo sapiens, read-out: Inhibition rate %
Description: as §1, §2, §3

[4] = test system: BGC-823 human gastric cancer cell; test: as above; assay type: cell-based; parameters: key to Test results: +++: inhibition rates at three doses are greater than 50%; ++: inhibition rates at two doses are greater than 50%; +: inhibition rate at one dose is greater than 50%; conditions: BGC-823, SRB; for Test results: number of doses with inhibition > 50%; for inhibition at 0.05 µM / inhibition at 0.5 µM / inhibition at 5 µM: Homo sapiens, read-out: Inhibition rate %
Description: as §1, §2, §3

[5] = test system: KB human nasopharyngeal carcinoma cell; test: as above; assay type: cell-based; parameters: key to Test results: +++: inhibition rates at three doses are greater than 50%; ++: inhibition rates at two doses are greater than 50%; +: inhibition rate at one dose is greater than 50%; conditions: for inhibition at 0.05 µM / inhibition at 0.5 µM / inhibition at 5 µM: Homo sapiens, read-out: Inhibition rate %; for Test results: number of doses with inhibition > 50%
Description: as §1, §2, §3

[6] = test system: BXPC-3 (human pancreatic cancer cell strain); test: In vitro anti-tumor activity (IC50), standard MTT method; assay type: cell-based; conditions: 72 h, average of three determinations
Description: (§6) HL-60, BXPC-3 and U266 were obtained from the American Type Culture Collection (Manassas, Va.), and BGC-823 (human gastric carcinoma cell strain) was obtained from China Pharmaceutical University.
(§7) Test methods: HL-60 cells were cultured in IMDM medium containing 20% fetal bovine serum at 37° C. in 5% CO2; BGC-823 cells and BXPC-3 cells were cultured in RPMI1640 medium containing 10% fetal bovine serum at 37° C. in 5% CO2; U266 cells were cultured in RPMI1640 medium containing 15% fetal bovine serum at 37° C. in 5% CO2.
(§8) The cell growth was measured by the standard MTT method. A dispersions (150 μL, containing 3000 cells) medium was added into each well of a 96-well plate and allowed to grow, after 24 h, ten kinds of medium (50 μL) containing different concentrations of drugs were added into the corresponding wells, and continued to incubate for 72 h. Then a solution containing 5 mg/ml MTT (20 μL) was added into each well and incubated for another 4 h at 37° C. The plate was then centrifugated at 1000 rpm at 4° C. for 5 min, and the medium in upper layer was carefully discarded. The precipitates were dissolved in 100 μL of DMSO, and absorbance was read with an Infinite M200 (Tecan, Austria) microplate reader at 540 nm.
(§9) The result was expressed as IC50 value, which is the average value of three independent determinations.

[7] = test system: U266 (multiple myeloma cell strain); test: as above; assay type: cell-based; conditions: Homo sapiens, U-266, 72 h, average of three determinations
Description: as §6, §7, §8, §9

[8] = test system: BGC-823 (human gastric carcinoma cell strain); test: as above; assay type: cell-based; conditions: 72 h, average of three determinations
Description: as §6, §7, §8, §9

[9] = test system: HL-60 (promyelocytic leukemia cell strain); test: as above; assay type: cell-based; conditions: Homo sapiens, 72 h, average of three determinations
Description: as §6, §7, §8, §9

[10] = target: T2, 20S proteasome extracted from rat liver, chymotryptic-like (CT-L) activity (Rattus norvegicus, UniProt P18421+P28075); test: Proteasome inhibition, chymotryptic-like (CT-L) activity, fluorescent peptide Suc-leu-leu-Val-Tyr-AMC; assay type: biochemical; conditions: rat liver 20S proteasome, 37° C., 1 h
T2 construct: 20S proteasome extracted from rat liver; from tissue; host or cells: rat liver
Description: as §4
as §5, with “calculated.” for “calculated. Said assays used anticancer drug bortezomib (leukemia drug), namely PS341 as compound for positive control.”

[11] = target: T3, 20S proteasome extracted from rat liver, trypsin-like (TL) activity (Rattus norvegicus, UniProt P40112+Q9JHW0); test: Proteasome inhibition, trypsin-like (TL) activity, fluorescent peptide Z-Ala-Arg-Arg-AMC; assay type: biochemical; conditions: rat liver 20S proteasome, 37° C., 1 h; read-out: T-L (IC50)
T3 construct: 20S proteasome extracted from rat liver; from tissue; host or cells: rat liver
Description: as §4, §5

melting point [°C]	IC50 [6] [nM]	IC50 [7] [nM]	IC50 [8] [nM]	Structure (SMILES)	Test results [1]	inhibition at 0.05 µM [1] [%]	inhibition at 0.5 µM [1] [%]	inhibition at 5 µM [1] [%]	Test results [3]	inhibition at 0.05 µM [3] [%]	inhibition at 0.5 µM [3] [%]	inhibition at 5 µM [3] [%]	Test results [4]	inhibition at 0.05 µM [4] [%]	inhibition at 0.5 µM [4] [%]	inhibition at 5 µM [4] [%]	inhibition at 0.05 µM [5] [%]	inhibition at 0.5 µM [5] [%]	inhibition at 5 µM [5] [%]	Test results [5]	also measured
134 to 135	31.8	53	2810	CC(C)C[C@H](NC(=O)[C@H](Cc1ccccc1)NC(=O)[C@H](Cc1ccc2ccccc2c1)NC(=O)c1cnccn1)B(O)O [Compound 6b, N-pyrazineformyl-L-naphthylalanyl-L-phenylalanyl-L-leucine Boronic Acid]	++	3.58	87.3	88.9	+	22.9	56.1	91.6	+++	56.4	93.7	96.7	23.3	91.5	96.6	++	IC50 [2]: 4.43 ± 1.41 nM; IC50 [9]: 10 nM; IC50 [10]: 0.417 ± 0.07 nM; IC50 [11]: > 20 nM
219 to 221	257	66.2	2460	CC(C)C[C@H](NC(=O)[C@H](Cc1ccccc1)NC(=O)[C@H](Cc1ccc(O)cc1)NC(=O)c1cnccn1)B(O)O [Compound 6d, N-pyrazineformyl-L-tyrosyl-L-phenylalanyl-L-leucine Boronic Acid]	+	-21.1	-5.04	87.9	+	1.7	8.79	90	+	4.33	46.7	97.5	3.23	17.3	96.2	+	IC50 [2]: 2.5 ± 1.49 nM; IC50 [9]: 445 nM; IC50 [10]: 0.263 ± 0.081 nM; IC50 [11]: > 20 nM
298 to 300	445	250	5140	CC(C)C[C@H](NC(=O)[C@H](Cc1ccc(O)cc1)NC(=O)[C@H](Cc1ccccc1)NC(=O)c1cnccn1)B(O)O [Compound 6c, N-pyrazineformyl-L-phenylalanyl-L-tyrosyl-L-leucine Boronic Acid]	+	-16.1	-8.48	65	+	-2.64	-4.84	71.2	+	2.64	25.1	97.7	-13.6	-5.16	95.4	+	IC50 [2]: 4.01 ± 1.47 nM; IC50 [9]: 552 nM; IC50 [10]: 0.395 ± 0.035 nM; IC50 [11]: > 20 nM
145 to 146	33.3	195	2450	CC(C)C[C@H](NC(=O)[C@H](Cc1ccc2ccccc2c1)NC(=O)[C@H](Cc1ccc2ccccc2c1)NC(=O)c1cnccn1)B(O)O [Compound 6h, N-pyrazineformyl-L-naphthylalanyl-L-naphthylalanyl-L-leucine Boronic Acid]	++	13.6	85.7	88.3	+	6.61	49.8	94.8	++	44.9	88.1	97.6	14.2	91.8	97.4	++	IC50 [9]: 19.6 nM; IC50 [10]: 0.335 ± 0.078 nM; IC50 [11]: > 20 nM

Reference: US9421237B2, “Tripeptide boronic acid or boronic ester, preparative method and use thereof” (PEKING UNIVERSITY, priority 2009, dated 2016)
